Data set [1] can be described thus: Half life in human liver microsomes at 1 uM in presence of NADPH.
Data set [2] in a line: Half life in rat liver microsomes at 1 uM in presence of NADPH.
The next data set deals with CYP3A4/5 (Homo sapiens, UniProt P08684+P20815). Kind of data set: Reversible inhibition of CYP3A4/5 in human liver microsomes using midazolam as substrate preincubated for 30 mins followed by NADPH and substrate addition measured after 10 mins. The following applies: probe midazolam. Type of data set: ADME, Microsome.
Data set [3] is described as follows: Lipophilicity, log P of the compound. Type of data set: physicochemical. The following applies: octanol/water.
The nature of data set [4]: Clearance in Sprague-Dawley rat at <= 1 mg/kg, iv. It is filed as ADME, organism-based. Also noted: dose 1 mg/kg, route intravenous. The following applies: in vivo.
Data set [5] can be described thus: Half life in Sprague-Dawley rat at <= 1 mg/kg, iv. The following applies: in vivo. It is filed as ADME, organism-based. Also noted: dose 1 mg/kg, route intravenous.
A short description of data set [6]: Volume of distribution at steady state in Sprague-Dawley rat at <= 1 mg/kg, iv. Type of data set: ADME, organism-based. Also noted: dose 1 mg/kg, route intravenous. The following applies: in vivo, read-out: Vdss.

For the compound `O=C(Nc1ccc(C(F)(F)F)cc1)c1ccc(C2(C(F)(F)F)CC2)cc1`, the half-life at 1 µM was over 6.75 h in data set [1] (microsomes) and 0.667 h in data set [2] (microsomes).
`CC(C)(C)c1ccc(-c2ccc(F)cn2)cc1`: the half-life at 1 µM in data set [1] (microsomes) amounted to 0.45 h; in data set [2] (microsomes), 0.4 h. Further, the IC50 at 10 min on CYP3A4/5 was over 50 µM.
`Fc1ccc(-c2ccc(C3(C(F)(F)F)CC3)cc2)nc1`: the half-life at 1 µM in data set [1] (liver microsomes) was 1.07 h; in data set [2] (liver microsomes) it was over 6.75 h. This compound also came in with a 50% inhibitory concentration (IC50) at 10 min against CYP3A4/5 of over 50 µM.
As for `CC(C)(C)c1ccc(-c2ccnc(C#N)c2)cc1`, the half-life at 1 µM in data set [1] (liver microsomes) was 0.417 h; in data set [2] (liver microsomes), 0.133 h.
As to `N#Cc1cc(-c2ccc(C3(C(F)(F)F)CC3)cc2)ccn1`, the half-life at 1 µM in data set [1] (liver microsomes) was determined as 1.15 h; in data set [2] (liver microsomes) it was 1.25 h.
Take `C[C@]12C=CC(=O)N[C@@H]1CC[C@@H]1[C@@H]2CC[C@]2(C)[C@@H](C(=O)NC3(C(F)(F)F)CC3)CC[C@@H]12`: the half-life at 1 µM in data set [1] (liver microsomes) was determined as 1.9 h.
As for `CC(C)(C)c1ccc(-c2ccc(C#N)cn2)cc1`, in data set [3], the lipophilicity (logP) is 4.2. Besides, in data set [4], the clearance was 1.2 L/h/kg. Also, the half-life at 1 µM is 0.85 h in data set [1] (microsomes) and 0.5 h in data set [2] (microsomes). Also, in data set [5], the half-life was 2.3 h. Further, the Vd in data set [6] worked out at 2.5 L/kg. The compound also yielded a half-maximal inhibitory concentration (IC50) at 10 min at CYP3A4/5 of over 50 µM.
For the compound `CC(C)(CO)c1ccc(-c2ccc(C#N)cn2)cc1`, the half-life at 1 µM in data set [1] (microsomes) is 3.37 h; in data set [2] (microsomes) it was 2.08 h.
Turning to `CC(C)(C#N)c1ccc(-c2ccc(C#N)cn2)cc1`, the half-life at 1 µM was 2.03 h in data set [1] (microsomes) and 1.17 h in data set [2] (microsomes).
The matching figures for `CC(C)(C(=O)O)c1ccc(-c2ccc(C#N)cn2)cc1`: 4.57 h and 2.25 h.
As to `CC1(c2ccc(-c3ccc(C#N)cn3)cc2)COC1`, the clearance in data set [4] worked out at 1.68 L/h/kg. Further, the half-life at 1 µM is 0.633 h in data set [1] (microsomes) and 0.617 h in data set [2] (microsomes). Besides, the half-life in data set [5] was 0.4 h. For the same compound, in data set [6], the Vd worked out at 1.3 L/kg. For the same compound, at CYP3A4/5, the IC50 at 10 min was over 50 µM.
In the case of `CC(C)c1ccc(-c2ccc(C#N)cn2)cc1`, the half-life at 1 µM turned out to be 0.15 h in data set [1] (microsomes) and 0.117 h in data set [2] (microsomes). On CYP3A4/5, this compound came in with an IC50 at 10 min of over 50 µM.
Consider `CC(c1ccc(-c2ccc(C#N)cn2)cc1)C(F)(F)F` (centres undefined), for which the half-life at 1 µM came to 1.1 h in data set [1] (microsomes) and 0.417 h in data set [2] (microsomes).
Take `N#Cc1ccc(-c2ccc(C3(C(F)(F)F)CC3)cc2)nc1`: the logP in data set [3] was found to be 4. Moreover, the clearance in data set [4] came out at 0.276 L/h/kg. Also, the half-life at 1 µM in data set [1] (liver microsomes) is 2.5 h; in data set [2] (liver microsomes), over 6.67 h. The compound also had a half-life in data set [5] of 9.1 h. Further, the Vd in data set [6] is 3.4 L/kg. On CYP3A4/5, the IC50 at 10 min is over 50 µM.
For `N#Cc1ccc(-c2ccc(C3(C(F)(F)F)CC3)nc2)nc1`, the values for the half-life at 1 µM in data set [1] (liver microsomes) and in data set [2] (liver microsomes) were 1.83 h and 2.15 h, respectively.
In data set [4], `CC(C)(C)c1ccc(C(=O)Nc2ccc(C(F)(F)F)nc2)cc1` gave a clearance of 21.1 L/h/kg. For the same compound, the half-life at 1 µM was found to be 0.683 h in data set [1] (liver microsomes) and 0.417 h in data set [2] (liver microsomes). In addition, the half-life in data set [5] is 0.2 h. Further, in data set [6], the Vd stood at 5.4 L/kg. The IC50 at 10 min against CYP3A4/5 was over 50 µM.
With `O=C(Nc1ccc(C(F)(F)F)nc1)c1ccc(C2(C(F)(F)F)CC2)cc1`, the clearance in data set [4] was 1.5 L/h/kg. Besides, the half-life at 1 µM in data set [1] (liver microsomes) was over 6.75 h; in data set [2] (liver microsomes), 3.28 h. For the same compound, the half-life in data set [5] is 3.4 h. In addition, the Vd in data set [6] was found to be 6.2 L/kg. For the same compound, the IC50 at 10 min against CYP3A4/5 was over 50 µM.
As for `CC(C)(C)c1ccc(C(=O)Nc2ccc(C#N)nc2)cc1`, the half-life at 1 µM came to 0.85 h in data set [1] (liver microsomes) and 0.4 h in data set [2] (liver microsomes).
The matching figures for `N#Cc1ccc(NC(=O)c2ccc(C3(C(F)(F)F)CC3)cc2)cn1`: 1.47 h and 1.63 h.
The matching figures for `CC(C)(C)c1ccc(C(=O)Nc2ccc(C#N)cc2)cc1`: 1.42 h and 0.2 h.
In the case of `N#Cc1ccc(NC(=O)c2ccc(C3(C(F)(F)F)CC3)cc2)cc1`, the values for the half-life at 1 µM in data set [1] (microsomes) and in data set [2] (microsomes) were over 6.75 h and 0.783 h, respectively.
Consider `CC(C)(C)c1ccc(C(=O)Nc2ccc(C(F)(F)F)cc2)cc1`, for which the half-life at 1 µM came to 0.483 h in data set [1] (liver microsomes) and 0.2 h in data set [2] (liver microsomes).
Take `CC(C)(C)NC(=O)[C@H]1CC[C@H]2[C@@H]3CC[C@H]4NC(=O)C=C[C@]4(C)[C@H]3CC[C@]12C` [FINASTERIDE]: the half-life at 1 µM in data set [1] (microsomes) is 1.05 h.

The values above are taken from ChEMBL document CHEMBL2384944, “Metabolically Stable tert-Butyl Replacement” (ACS Med Chem Lett, 2013).
